In brackets after ≈: the same amount, converted by molar mass. Read-outs that look alike come from different tables or passages of the source.
Columns and labels:
Format in all cases: cell-based
[1] = test system: P. aeruginosa ATCC-10145; test: MIC against P. aeruginosa ATCC-10145 by the plate diluted method; conditions: Pseudomonas aeruginosa, ATCC10145
Procedure: (§1) In order to investigate the in vitro activity of the test compounds against various bacteria, the minimal inhibitory concentration (MIC) values were determined by the plate diluted method (See CHEMOTHERAPY, 22, 1126-1128, 1974.)
(§2) Each strain was adjusted to 1×10^6 cells/ml (O.D. 600 mμ, 0.07 to 0.16).

[2] = test system: P. aeruginosa E-2; test: MIC against P. aeruginosa E-2 by the plate diluted method; conditions: Pseudomonas aeruginosa, E2
Procedure: as §1, §2

[3] = test system: M. moganii IIDkono; test: MIC against M. moganii IIDkono by the plate diluted method
Procedure: as §1, §2

[4] = test system: E. coli NIHJ JC-2; test: MIC against E. coli NIHJ JC-2 by the plate diluted method; conditions: Escherichia coli, NIHJJC2
Procedure: as §1, §2

[5] = test system: K. pneumoniae NCTC-9632; test: MIC against K. pneumoniae NCTC-9632 by the plate diluted method; conditions: Klebsiella pneumoniae, NCTC9632
Procedure: as §1, §2

[6] = test system: A. calcoaceticus Ac-54; test: MIC against A. calcoaceticus Ac-54 by the plate diluted method; conditions: Acinetobacter calcoaceticus, AC54
Procedure: as §1, §2

[7] = test system: S. marcescens IFO 12648; test: MIC against S. marcescens IFO 12648 by the plate diluted method; conditions: Serratia marcescens, IFO12648
Procedure: as §1, §2

[8] = test system: S. aureaus FDA-209P; test: MIC against S. aureaus FDA-209P by the plate diluted method; conditions: Staphylococcus aureus, FDA209P
Procedure: as §1, §2

[9] = test system: E. coli No. 29; test: MIC against E. coli No. 29 by the plate diluted method; conditions: Escherichia coli, 1×10^6 cells/ml
Procedure: as §1, §2

[10] = P. aeruginosa ATCC-10145, 1×10^6 cells/ml, read-out: MIC
[11] = P. aeruginosa E-2, 1×10^6 cells/ml, read-out: MIC
[12] = E. coli NIHJ JC-2, 1×10^6 cells/ml, read-out: MIC
[13] = K. pneumoniae NCTC-9632, 1×10^6 cells/ml, read-out: MIC
[14] = A. calcoaceticus Ac-54, 1×10^6 cells/ml, read-out: MIC
[15] = S. marcescens IFO 12648, 1×10^6 cells/ml, read-out: MIC
[16] = S. aureaus FDA-209P, 1×10^6 cells/ml, read-out: MIC
[17] = M. moganii IIDkono, 1×10^6 cells/ml, read-out: MIC

Cc1nc(SCC2=C(C(=O)O)N3C(=O)[C@@H](NC(=O)/C(=N\OCc4cc(=O)c(O)cn4O)c4nsc(N)n4)[C@H]3CS2)sc1CC(=O)O [No. 18, (6S,7S)-7-[(Z)-2-(5-amino-1,2,4-thiadiazol-3-yl)-2-(1,5-dihydroxy-4-pyridone-2-ylmethoxyimino)acetamide]-3-(5-carboxymethyl-4-methylthiazol-2-ylthiomethyl)isocephem-4-carboxylic acid]
MIC [1, 10]: 0.1 µg/mL (≈ 0.141 µM)
MIC [2, 11]: 0.1 µg/mL (≈ 0.141 µM)
MIC [3]: 0.05 µg/mL (≈ 0.0703 µM)
MIC [4, 12]: 0.1 µg/mL (≈ 0.141 µM)
MIC [5, 13]: 0.024 µg/mL (≈ 0.0338 µM)
MIC [6, 14]: 0.1 µg/mL (≈ 0.141 µM)
MIC [7, 15]: 0.024 µg/mL (≈ 0.0338 µM)
MIC [8, 16]: 100 µg/mL (≈ 141 µM)

CC(C)(O/N=C(\C(=O)N[C@@H]1C(=O)N2C(C(=O)[O-])=C(C[n+]3ccccc3)CS[C@H]12)c1csc(N)n1)C(=O)O [CAZ, Ceftazizime, reference compound]
MIC [1]: 0.78 µg/mL (≈ 1.43 µM)
MIC [2]: 1.56 µg/mL (≈ 2.85 µM)
MIC [3]: 0.05 µg/mL (≈ 0.0915 µM)
MIC [4]: 0.2 µg/mL (≈ 0.366 µM)
MIC [5]: 0.05 µg/mL (≈ 0.0915 µM)
MIC [6]: 1.56 µg/mL (≈ 2.85 µM)
MIC [7]: 0.024 µg/mL (≈ 0.0439 µM)
MIC [8]: 3.13 µg/mL (≈ 5.73 µM)

Cc1nc(SCC2=C(C(=O)O)N3C(=O)[C@@H](NC(=O)/C(=N\OCc4cc(=O)c(O)cn4O)c4nsc(N)n4)[C@H]3SC2)sc1CC(=O)O [No. 19, (6R,7R)-7-[(Z)-2-(5-amino-1,2,4-thiadiazol-3-yl)-2-(1,5-dihydroxy-4-pyridone-2-ylmethoxyimino)acetamide]-3-(5-carboxymethyl-4-methylthiazol-2-ylthiomethyl)-3-cephem-4-carboxylic acid]
MIC [1, 10]: 0.05 µg/mL (≈ 0.0703 µM)
MIC [2, 11]: 0.1 µg/mL (≈ 0.141 µM)
MIC [3]: 0.05 µg/mL (≈ 0.0703 µM)
MIC [4, 12]: 0.1 µg/mL (≈ 0.141 µM)
MIC [5, 13]: 0.024 µg/mL (≈ 0.0338 µM)
MIC [6, 14]: 0.05 µg/mL (≈ 0.0703 µM)
MIC [7, 15]: 0.024 µg/mL (≈ 0.0338 µM)
MIC [8, 16]: 100 µg/mL (≈ 141 µM)

Nc1nc(/C(=N/OCc2cc(=O)c(O)cn2O)C(=O)N[C@@H]2C(=O)N3C(C(=O)[O-])=C(CSc4cc[n+](CC(=O)O)cc4)SC[C@H]23)ns1 [No. 24, (6S,7S)-7-[(Z)-2-(5-amino-1,2,4-thiadiazol-3-yl)-2-(1,5-dihydroxy-4-pyridone-2-ylmethoxyimino)acetamide]-3-(1-carboxymethylpyridinium-4-ylthiomethyl)isocephem-4-carboxylate]
MIC [1, 10]: 0.1 µg/mL (≈ 0.145 µM)
MIC [2, 11]: 0.2 µg/mL (≈ 0.29 µM)
MIC [3, 17]: 0.024 µg/mL (≈ 0.0347 µM)
MIC [4, 12]: 0.1 µg/mL (≈ 0.145 µM)
MIC [5, 13]: 0.024 µg/mL (≈ 0.0347 µM)
MIC [6, 14]: 0.39 µg/mL (≈ 0.565 µM)
MIC [7, 15]: 0.024 µg/mL (≈ 0.0347 µM)
MIC [8, 16]: 12.5 µg/mL (≈ 18.1 µM)

Nc1nc(/C(=N/OCc2cc(=O)c(O)cn2O)C(=O)N[C@@H]2C(=O)N3C(C(=O)[O-])=C(CSc4cc[n+](CC(=O)O)cc4)CS[C@H]23)ns1 [No. 25, (6R,7R)-7-[(Z)-2-(5-amino-1,2,4-thiadiazol-3-yl)-2-(1,5-dihydroxy-4-pyridone-2-ylmethoxyimino)acetamide]-3-(1-carboxymethylpyridinium-4-ylthiomethyl)-3-cephem-4-carboxylate]
MIC [1, 10]: 0.1 µg/mL (≈ 0.145 µM)
MIC [2, 11]: 0.2 µg/mL (≈ 0.29 µM)
MIC [3]: 0.05 µg/mL (≈ 0.0724 µM)
MIC [4]: 0.2 µg/mL (≈ 0.29 µM)
MIC [5, 13]: 0.024 µg/mL (≈ 0.0347 µM)
MIC [6, 14]: 0.39 µg/mL (≈ 0.565 µM)
MIC [7, 15]: 0.024 µg/mL (≈ 0.0347 µM)
MIC [8, 16]: 6.25 µg/mL (≈ 9.05 µM)

Nc1nc(/C(=N/OCc2cc(=O)c(O)cn2O)C(=O)N[C@@H]2C(=O)N3C(C(=O)O)=C(CSc4snc(O)c4C(=O)O)SC[C@H]23)ns1 [No. 22, (6S,7S)-7-[(Z)-2-(5-amino-1,2,4-thiadiazol-3-yl)-2-(1,5-dihydroxy-4-pyridone-2-ylmethoxyimino)acetamide]-3-(4-carboxy-3-hydroxyisothiazol-5-ylthiomethyl) isocephem-4-carboxylic acid]
MIC [1, 10]: 0.1 µg/mL (≈ 0.143 µM)
MIC [2, 11]: 0.2 µg/mL (≈ 0.286 µM)
MIC [3]: 0.05 µg/mL (≈ 0.0716 µM)
MIC [4, 12]: 0.05 µg/mL (≈ 0.0716 µM)
MIC [5, 13]: 0.012 µg/mL (≈ 0.0172 µM)
MIC [6, 14]: 0.1 µg/mL (≈ 0.143 µM)
MIC [7, 15]: 0.012 µg/mL (≈ 0.0172 µM)
MIC [8, 16]: 100 µg/mL (≈ 143 µM)

Nc1nc(/C(=N/OCc2cc(=O)c(O)cn2O)C(=O)N[C@@H]2C(=O)N3C(C(=O)O)=C(CSc4nnnn4CC(=O)O)CS[C@H]23)ns1 [No. 21, (6R,7R)-7-[(Z)-2-(5-amino-1,2,4-thiadiazol-3-yl)-2-(1,5-dihydroxy-4-pyridone-2-ylmethoxyimino)acetamide]-3-(1-carboxymethyl-1H-tetrazole-5-ylthiomethyl)-3-cephem-4-carboxylic acid]
MIC [1, 10]: 0.1 µg/mL (≈ 0.147 µM)
MIC [2, 11]: 0.1 µg/mL (≈ 0.147 µM)
MIC [3, 17]: 0.024 µg/mL (≈ 0.0352 µM)
MIC [4, 12]: 0.1 µg/mL (≈ 0.147 µM)
MIC [5, 13]: 0.012 µg/mL (≈ 0.0176 µM)
MIC [6, 14]: 0.05 µg/mL (≈ 0.0734 µM)
MIC [7, 15]: 0.012 µg/mL (≈ 0.0176 µM)
MIC [8, 16]: 100 µg/mL (≈ 147 µM)

Nc1nc(/C(=N/OCc2cc(=O)c(O)cn2O)C(=O)N[C@@H]2C(=O)N3C(C(=O)O)=C(CSc4nnnn4CC(=O)O)SC[C@H]23)ns1 [No. 20, (6S,7S)-7-[(Z)-2-(5-amino-1,2,4-thiadiazol-3-yl)-2-(1,5-dihydroxy-4-pyridone-2-ylmethoxyimino)acetamide]-3-(1-carboxymethyl-1H-tetrazol-5-ylthiomethyl)-isocephem-4-carboxylic acid]
MIC [1, 10]: 0.05 µg/mL (≈ 0.0734 µM)
MIC [2, 11]: 0.05 µg/mL (≈ 0.0734 µM)
MIC [3, 17]: 0.024 µg/mL (≈ 0.0352 µM)
MIC [4, 12]: 0.05 µg/mL (≈ 0.0734 µM)
MIC [5, 13]: 0.012 µg/mL (≈ 0.0176 µM)
MIC [6, 14]: 0.05 µg/mL (≈ 0.0734 µM)
MIC [7, 15]: 0.012 µg/mL (≈ 0.0176 µM)
MIC [8, 16]: 100 µg/mL (≈ 147 µM)

Nc1nc(/C(=N/OCc2cc(=O)c(O)cn2O)C(=O)N[C@@H]2C(=O)N3C(C(=O)O)=C(CSc4snc(O)c4C(=O)O)CS[C@H]23)ns1 [No. 23, (6R,7R)-7-[(Z)-2-(5-amino-1,2,4-thiadiazol-3-yl)-2-(1,5-dihydroxy-4-pyridone-2-ylmethoxyimino)acetamide]-3-(4-carboxy-3-hydroxyiso-thiazol-5-ylthiomethyl)-3-cephem-4-carboxylic acid]
MIC [1, 10]: 0.1 µg/mL (≈ 0.143 µM)
MIC [2, 11]: 0.1 µg/mL (≈ 0.143 µM)
MIC [3]: 0.05 µg/mL (≈ 0.0716 µM)
MIC [4, 12]: 0.1 µg/mL (≈ 0.143 µM)
MIC [5, 13]: 0.024 µg/mL (≈ 0.0343 µM)
MIC [6, 14]: 0.1 µg/mL (≈ 0.143 µM)
MIC [7, 15]: 0.024 µg/mL (≈ 0.0343 µM)
MIC [8, 16]: 100 µg/mL (≈ 143 µM)

Nc1nc(/C(=N/OCc2cc(=O)c(O)cn2O)C(=O)N[C@@H]2C(=O)N3C(C(=O)O)=C(CSc4nnnn4CCO)SC[C@H]23)cs1 [No. 11, (6S,7S)-7-[(Z)-2-(2-aminothiazol-4-yl)-2-(1,5-dihydroxy-4-pyridone-2-ylmethoxyimino)acetamide]-3-[1-(2-hydroxyethyl)-1H-tetrazole-5-ylthiomethyl]isocephem-4-carboxylic acid]
MIC [1, 10]: 0.05 µg/mL (≈ 0.075 µM)
MIC [9]: 0.05 µg/mL (≈ 0.075 µM)
MIC [2, 11]: 0.05 µg/mL (≈ 0.075 µM)
MIC [3, 17]: 0.024 µg/mL (≈ 0.036 µM)
MIC [5, 13]: 0.012 µg/mL (≈ 0.018 µM)
MIC [6, 14]: 0.2 µg/mL (≈ 0.3 µM)
MIC [7, 15]: 0.012 µg/mL (≈ 0.018 µM)
MIC [8, 16]: 50 µg/mL (≈ 75 µM)

Cc1nnc(SCC2=C(C(=O)O)N3C(=O)[C@@H](NC(=O)/C(=N\OC(C(=O)O)c4ccc(O)c(O)c4)c4csc(N)n4)[C@H]3CS2)s1 (stereo partly drawn) [No. 6, (6S,7S)-7-{(Z)-2-(2-aminothiazol-4-yl)-2-[carboxy(3,4-dihydroxyphenol)methoxyimino]}acetamide-3-(2-methyl-1,3,4-thiadiazol-5-ylthiomethyl)isocephem-4-carboxylic acid]
MIC [1, 10]: 0.2 µg/mL (≈ 0.294 µM)
MIC [9]: 0.012 µg/mL (≈ 0.0177 µM)
MIC [2, 11]: 0.39 µg/mL (≈ 0.574 µM)
MIC [3, 17]: 0.024 µg/mL (≈ 0.0353 µM)
MIC [5, 13]: ≤ 0.006 µg/mL
MIC [6, 14]: 0.2 µg/mL (≈ 0.294 µM)
MIC [7, 15]: 0.012 µg/mL (≈ 0.0177 µM)
MIC [8]: 3.13 µg/mL (≈ 4.6 µM)
